Values of other authors in patent publication US12295943B2 (Closed Loop Medicine Ltd., priority 2023, dated 2025).
Where two headings read alike, the source gives them in different places.

Legend:
[1] = not given; remark: listed apart in the source
[2] = for trough plasma level range: steady state
CYP3A4 = CYP3A4 (Homo sapiens, UniProt P08684); conditions: CYP3A4, linked with P-glycoprotein transporter
[3] = not given; remark: listed apart in the source
[4] = in vivo
[5] = tested on: patients with nonvalvular AF
[6] = not given; remark: listed apart in the source
[7] = tested on: metabolic enzymes or transport mechanisms; conditions: in vitro
stroke = conditions: AF patients
[8] = high body weight (≥120 kg) vs reference group
[9] = low body weight (≤50 kg) vs reference group (65-85 kg)

Sequence of CYP3A4 (P08684 whole entry): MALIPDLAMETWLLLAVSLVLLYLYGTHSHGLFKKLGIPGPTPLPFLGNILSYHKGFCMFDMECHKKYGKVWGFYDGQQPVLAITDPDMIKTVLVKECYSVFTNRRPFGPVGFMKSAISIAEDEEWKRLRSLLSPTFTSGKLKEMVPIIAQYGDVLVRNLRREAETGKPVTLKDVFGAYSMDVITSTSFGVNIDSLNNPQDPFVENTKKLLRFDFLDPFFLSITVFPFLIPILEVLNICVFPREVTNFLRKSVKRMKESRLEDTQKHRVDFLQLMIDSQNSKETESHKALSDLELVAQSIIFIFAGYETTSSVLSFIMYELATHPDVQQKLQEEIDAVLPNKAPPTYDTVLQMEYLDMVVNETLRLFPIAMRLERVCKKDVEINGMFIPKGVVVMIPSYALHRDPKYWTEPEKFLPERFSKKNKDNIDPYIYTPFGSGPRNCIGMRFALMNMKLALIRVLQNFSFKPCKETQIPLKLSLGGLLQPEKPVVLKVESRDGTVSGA

## COc1ccc(-n2nc(C(N)=O)c3c2C(=O)N(c2ccc(N4CCCCC4=O)cc2)CC3)cc1 [Apixaban]
Evening versus morning
  observed drug plasma levels lower in the evening than in the morning: ~50%
Healthy human volunteers
  coefficient of variance for AUC of the plasma level time profile: ~30%
  coefficient of variance for Cmax: ~30%
human, in vivo
  direct intestinal excretion into the faeces, unchanged drug: 34%
  dose excreted by renal route: 20-25%
  elimination via metabolism: ~20%
  renal clearance: 15 mL/min
  renal clearance as share of GFR: ~12 % of GFR
  total body clearance: 50 mL/min
  total body clearance as share of liver blood flow: ~3 % liver blood flow
human, in vivo, po
  absolute oral bioavailability: ~50%
Iv or oral solution
  half-life after iv or oral solution: ~5 h
oral, without food
  time of maximum concentration after oral administration: 3 to 4 h
  time of maximum concentration, range: 1 to 6 h
Repeated administration
  increase in levels at steady state compared to the first dose: ~65%
  time to steady state after repeated administration: ≤ 3 days
With food
  delay of maximum concentration by food: ~1 h
  time of maximum concentration with food, range: 1 to 9 h
[1]; [8]
  lower apixaban AUC0-∞: ~23%
  lower apixaban Cmax: approximately 31%
[1]; [9]
  higher AUC0-∞: ~20%
  higher maximum apixaban plasma concentration (Cmax): approximately 27%
[2]; 2.5 mg dose
  trough plasma level range: 20 to 180 ng/mL
[2]; 5 mg dose
  trough plasma level range: 10 to 310 ng/mL
[2]; in vivo
  variability in drug plasma levels across the population for a given dose: 6-10 FOLD
CYP3A4
  substrate status: substrate primarily for CYP3A4
[3]; age coefficient on non-renal clearance, AGEREF 60 years
  AGEP: 0.267
[3]; apparent central volume of distribution
  VC/F: 32.1 L
[3]; apparent inter-compartmental clearance
  Q/F: 1.62 L/h
[3]; apparent peripheral volume of distribution
  VP/F: 19.8 L
[3]; non-renal component of apparent clearance
  CLNR/F (Ref): 2.52 L/h
[3]; power coefficients for CrCL versus CL/F
  θ1, θ2: 1.0
[3]; shape parameter of dose versus relative bioavailability
  ┌: 0.853
[3]; weight coefficient on Vc/F, WTref 85.0 kg
  WTP: 0.523
[4]
  principle side effect: increased bleeding tendency, with undesired haemorrhage, sometimes fatal
[5]
  efficacy compared with warfarin: superior to warfarin
  risk of intracranial bleeds compared with warfarin: small reduction
[6]; with Clarithromycin
  increase in mean apixaban AUC 0-∞: 1.6 fold
  increase in mean apixaban Cmax: 1.3 fold
[6]; with Clarithromycin (Table 2)
  increase in AUC: ~50% increase in Cmax and AUC
  increase in Cmax: ~50% increase in Cmax and AUC
[6]; with Diltiazem
  increase in AUC: ~40% increase in AUC
[6]; with Ketaconazole or other CYP 3A4/PgP inhibitors
  increase in AUC: ~100% increase in AUC
[6]; with Ketoconazole (CYP 3A4 inhibitor)
  increase in exposure (drug levels): ~2 fold
[6]; with Riampin or other CYP 3A4 inducers
  decrease in AUC: ~50% decrease in AUC
[6]; with rifampicin
  decrease in exposure: ~50%
[7]
  inhibition or induction of metabolic enzymes or transport mechanisms: does not inhibit or induce

## [H]/N=C(/N)c1ccc(NCc2nc3cc(C(=O)N(CCC(=O)O)c4ccccn4)ccc3n2C)cc1 [dabigatran]
human, in vivo
  share cleared through the kidneys: ~80%

## CC(=O)CC(c1ccccc1)c1c(O)c2ccccc2oc1=O (stereo not shown) [warfarin]
stroke
  reduction of stroke: about 60%
